One may read the LD50 as the dose expected to kill half of the subjects tested. Read a low LD50 as greater toxicity.

This is an account of results in EPA's ToxValDB 9.5 (doi:10.2903/j.efsa.2014.3524).

One data set relates to Rattus norvegicus. Particulars: acute; oral; mortality.
Another data set relates to Bird. Particulars: oral, mortality; for LD50: acute, unspecified; for LC50: short-term, feed.

On to `CCC/C=C/CCCCCCCOC(C)=O` [(E)-Dodec-8-enyl acetate], for which the LD50 with Rattus norvegicus is more than 5000 mg/kg.

Regarding `CCCC/C=C\CCCCCCCCOC(C)=O` [(Z)-9-Tetradecenyl acetate], the LD50 in the data set on Rattus norvegicus is more than 5000 mg/kg.

Consider `C/C=C/C=C/CCCCCCCO` [(8E,10E)-8,10-Dodecadien-1-ol], for which the LD50 in the data set with Bird was more than 2050 mg/kg; with Rattus norvegicus it was more than 5000 mg/kg.

In the data set on Rattus norvegicus, `CCC=CC=CCCCCCCOC(C)=O` (stereo in doubt) [(7Z,9E)-Dodeca-7,9-dienyl acetate] yielded an LD50 of more than 5000 mg/kg.

`CC/C=C\CCCCCCCCCCOC(C)=O` [(Z)-Tetradec-11-enyl acetate]: in the data set with Rattus norvegicus, the LD50 was more than 5000 mg/kg.

As to `CC/C=C\CCCCCCCCOC(C)=O` [(Z)-Dodec-9-enyl acetate], the LD50 with Rattus norvegicus was more than 5000 mg/kg.

In the data set on Bird, `CCCC/C=C/CC/C=C\CCCCCCOC(C)=O` [Hexadeca-7,11-dien-1-yl acetate (Z,E)-] showed an LD50 of more than 2250 mg/kg and an LC50 of more than 5620 mg/kg. The molecule further came in with a median lethal dose (LD50) in the data set on Rattus norvegicus of more than 5000 mg/kg.

For `CCCC/C=C\CCCCCCCCCC=O` [(Z)-11-Hexadecenal], the LD50 in the data set on Bird was more than 2250 mg/kg; with Rattus norvegicus it was more than 5000 mg/kg. The molecule also had an LC50 with Bird of more than 5620 mg/kg.
